In patent US11273217B2, “Cancer treatment composition combining anti-CD26 antibody and other anticancer agent” (Y's AC Co., Ltd., priority 2015, dated 2022):

Columns and labels:
[1] = test system: MESO1 cells; experiment: MTT cell growth assay, MESO1; type: cell-based; conditions: 3×10^−8 M or 10^−7 M gemcitabine with cisplatin 0-1 μM and pemetrexed 0-0.3 μM; day 2
Method: (§1) MESO1 or H2452 cells (2×10^3 cells/well) were inoculated to a 96-well plate. One hour later, cisplatin or pemetrexed was added thereto at 10^−9, 10^−8, 10^−7, 10^−6, 10^−5, or 10^−4 M (n=6). At day 2, MTT assay was conducted.
MESO1 cells (2×10^3 cells/well) were inoculated to a 96-well plate. One hour later, the combination of 0.3, 3, or 10 μM cisplatin and 0.1, 3, or 10 μg/ml YS110, or the combination of 0.03, 0.3, or 1 μM pemetrexed and 0.1, 3, or 10 μg/ml YS110 was added thereto. At day 2, MTT assay was conducted. Significant difference was tested by two-tailed t-test (vs Cont).
(§2) MESO1 cells (2×10^3 cells/well) or H2452 cells (2×10^3 cells/well) were inoculated to a 96-well plate. One hour later, 0.3 μM cisplatin-0.1 μM pemetrexed combination, or YS110 (10 μg/ml) plus the 0.3 μM cisplatin-0.1 μM pemetrexed combination was added thereto (n=6). At day 2, MTT assay was conducted. Significant difference was tested by two-tailed t-test (vs Cont).
(§3) Gemcitabine was studied for its effect on the growth of a mesothelioma cell line. A mesothelioma cell line MESO1, JMN, H2452, or H226 (2×10^3 cells/well) was inoculated to a 96-well plate. One hour later, gemcitabine (10^−9, 10^−8, 10^−7, 10^−6, 10^−5, or 10^−4 M) was added thereto (N=6). 2 days later, MTT assay was conducted. Significant difference was tested by two-tailed t-test (vs Cont).
(§4) MESO1 cells (2×10^3 cells/well) were inoculated to a 96-well plate. One hour later, gemcitabine (0, 10^−8, 3×10^−8, or 10^−7 M) and YS110 (0, 1, 3, or 10 μg/ml) were added thereto in combination. At day 2, MTT assay was conducted. Significant difference was tested by two-tailed t-test (vs Cont). Next, interaction in concomitant use of medications was studied (n=6). The interaction between YS110 and gemcitabine used concomitantly was analyzed by two-way ANOVA.
(§5) MESO1, JMN, H2452 or H226 cells (2×10^3 cells/well were inoculated to a 96-well plate. One hour later, 3×10^−8 M or 10^−7 M gemcitabine was added thereto by concomitant use with the combination of cisplatin (0, 0.1, 0.3, or 1 μM) and pemetrexed (0, 0.03, 0.1, or 0.3 μM) (n=6). At day 2, MTT assay was conducted.
(§6) The growth inhibitory effects of cisplatin (10^−9 to 10^−4 M) and pemetrexed (10^−9 to 10^−4 M) were compared using the MESO1 and JMN cell lines.
(§7) The growth inhibitory effect of gemcitabine (10^−9 to 10^−4 M) was compared using MESO1, H2452, JMN, and H226 cell lines.

[2] = test system: H2452 cells; experiment: MTT cell growth assay, H2452; type: cell-based; conditions: 3×10^−8 M or 10^−7 M gemcitabine with cisplatin 0-1 μM and pemetrexed 0-0.3 μM; day 2
Method: as §1
H2452 cells (2×10^3 cells/well) were inoculated to a 96-well plate. One hour later, the combination of 0.03, 0.3, or 1 μM cisplatin and 0.1, 3, or 10 μg/ml YS110, or the combination of 0.01, 0.1, or 0.3 μM pemetrexed and 0.1, 3, or 10 μg/ml YS110 was added thereto (n=6). At day 2, MTT assay was conducted. Significant difference was tested by two-tailed t-test (vs Cont).
as §2, §3
as §4, with “H2452” for “MESO1”
as §5, §7

[3] = test system: JMN cells; experiment: MTT cell growth assay, JMN; type: cell-based
Method: as §3
as §4, with “JMN” for “MESO1”, “3×10^−10, 10^−9,” for “10^−8, 3×10^−8,”, “3×10^−8” for “10^−7”
as §5, §6, §7

[4] = test system: H226 cells; experiment: MTT cell growth assay, H226; type: cell-based
Method: as §3
as §4, with “H226” for “MESO1”
as §5, §7

[5] = test system: JMN cells; experiment: In vivo JMN cell growth in SCID mice (tumor weight); conditions: YS110 10 mg/kg, gemcitabine 10 mg/kg, intraperitoneal, days 2 and 4; day 7
[6] = test system: H226; experiment: In vivo growth of epithelioid mesothelioma cell H226 in SCID mice (tumor weight); conditions: YS110 10 mg/kg, gemcitabine 20 mg/kg, intraperitoneal, days 2 and 4; day 7
Method: H226 (3.8×10^5 cells/animal) was subcutaneously transplanted to the backs of female SCID mice. The day of transplantation was defined as day 0. YS110 (10 mg/kg), gemcitabine (20 mg/kg), or YS110 (10 mg/kg)+gemcitabine (20 mg/kg) was intraperitoneally administered to the mice twice (days 2 and 4) (n=6). At day 7, their tumors were excised, and the tumor weights were measured. Significant difference was tested by two-tailed t-test (vs Cont). The interaction between YS110 and gemcitabine used concomitantly was analyzed by two-way ANOVA.

[7] = 3×10^−8 M or 10^−7 M gemcitabine with cisplatin 0-1 μM and pemetrexed 0-0.3 μM, day 2

Nc1ccn([C@@H]2O[C@H](CO)[C@@H](O)C2(F)F)c(=O)n1 [gemcitabine]
effect of gemcitabine on the growth inhibitory action of cisplatin-pemetrexed [1]: did not potentiate
effect of gemcitabine on the growth inhibitory action of cisplatin-pemetrexed [2]: did not potentiate
effect of gemcitabine on the growth inhibitory action of cisplatin-pemetrexed [3, 7]: did not potentiate
cell growth, gemcitabine dose-response compared among mesothelioma cell lines (in words) ([3]; 10^−9 to 10^−4 M, 2 days): more strongly suppressed the growth
growth inhibitory effect compared between MESO1 and JMN ([3]; MESO1 (CD9+) vs JMN (CD9−), 10^−9 to 10^−4 M): significantly stronger growth inhibitory effect on JMN than on MESO1
effect of gemcitabine on the growth inhibitory action of cisplatin-pemetrexed [4, 7]: did not potentiate
cell growth, gemcitabine dose-response compared among mesothelioma cell lines (in words) ([4]; 10^−9 to 10^−4 M, 2 days): more strongly suppressed the growth
growth inhibitory effect compared between H2452 and H226 ([4]; H2452 (CD9+) vs H226 (CD9−), 10^−9 to 10^−4 M): significantly stronger growth inhibitory effect on H226 than on H2452
inhibitory effect (tumor weight) [5]: 29%
inhibitory effect (tumor weight) [6]: 29%
